From patent US9637519B2, “Peptide for inducing mast cell-specific apoptosis and use thereof” (CAREGEN CO., LTD., priority 2013, dated 2017)
Like-named read-outs stand apart in the source and are kept apart here. Ends that are not written are not given here.

T1: FcεRI receptor (Rattus norvegicus, UniProt P12371+P13386+P20411)
T1 construct: FcεRI receptor, which is present on surfaces of mast cells; endogenous in cells; host or cells: RBL-2H3 rat mast cell line
T1 sequence (P12371 24-245): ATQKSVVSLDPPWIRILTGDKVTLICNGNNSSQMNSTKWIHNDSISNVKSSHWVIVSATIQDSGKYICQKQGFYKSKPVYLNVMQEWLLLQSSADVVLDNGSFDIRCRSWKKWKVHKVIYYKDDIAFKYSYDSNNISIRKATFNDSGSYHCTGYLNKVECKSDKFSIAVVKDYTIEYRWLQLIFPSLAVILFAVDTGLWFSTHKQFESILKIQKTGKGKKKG
T1 sequence (P13386 1-243): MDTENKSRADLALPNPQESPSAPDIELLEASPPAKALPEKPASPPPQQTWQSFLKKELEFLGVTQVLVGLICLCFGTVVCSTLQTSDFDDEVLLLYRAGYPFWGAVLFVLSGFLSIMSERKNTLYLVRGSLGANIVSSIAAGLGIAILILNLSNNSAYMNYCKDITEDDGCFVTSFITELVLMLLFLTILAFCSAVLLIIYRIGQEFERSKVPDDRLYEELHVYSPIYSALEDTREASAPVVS
T1 sequence (P20411 19-86): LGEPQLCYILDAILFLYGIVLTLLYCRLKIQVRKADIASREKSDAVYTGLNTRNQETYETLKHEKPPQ


Tests used:
RBL-2H3 cells = test: Histamine secretion from IgE/HSA-stimulated mast cells (histamine ELISA); type: cell-based, rat; conditions: IgE 1 μg/ml sensitized, HSA 1 μg/ml stimulated
Description: In the culture of RBL-2H3 cells sensitized by IgE treatment (1 μg/ml) for 16 h, the existing culture medium was removed and exchanged with a tyrode buffer. […] In addition, in order to measure the activity of beta-hexosaminidase, the degree of color development after a reaction with a substrate, p-N-acetyl-glucosamine (NAG; SIGMA, USA) was determined by measuring the absorbance at 405 nm using a spectrophotometer (see FIG. 3b).

[1] = tested on: RBL-2H3 rat mast cell lines; conditions: 10 μg/ml treatment group, 27 h
Description: First, RBL-2H3 rat mast cell lines (Korean Cell Line Bank, Korea) were cultured in Dulbecco's modified Eagle's medium (DMEM, Gibco, U.S.A.) supplemented with 10% fetal bovine serum (FBS, Sigma) using a flask for tissue culture (SPL, Korea). The cultured cell lines were detached from the bottom of the culture container using a 1% trypsin solution, and then only cell deposits were collected by centrifugation. The cell deposits were again suspended in DMEM culture liquid, placed in each well of a 6-well plate for tissue culture (SPL, Korea) at 1×10^5 cells per well, and then cultured for 24 h under conditions of 37° C. and 5% CO2. After 24 h, the medium was exchanged with the same culture liquid. […] After the completion of the culture, the culture supernatant fluid was removed, the cultured cell lines were detached from the bottom of the culture container using a 1% trypsin solution, and then only cell precipitates were collected by centrifugation. The cells were stained using an Annexin V-PI staining kit (BD pharmigen), and then FL1 and FL2 intensities were measured using flow cytometry, FACS. Annexin V-positive apoptotic cells were counted (see FIG. 2a).

HaCaT cells = conditions: HaCaT human keratinocytes; 1 and 10 μg/ml; 27 h; MTT
Description: (§1) Meanwhile, in order to investigate whether or not the apoptosis effect is a mast cell-specific reaction, the cytotoxicity test was conducted using HaCaT cells as keratinocytes and NIH3T3 cells as fibroblasts. The cells were placed in a 96-well plate for tissue culture at 5×10^3 cells per well, and then cultured for 24 h under conditions of 37° C. and 5% CO2. After 24 h, the medium was exchanged with the same culture liquid. A blank sample for determining a reference and the synthetic peptide were dissolved in 10% distilled water in a sterile state, followed by culturing at concentrations of 1 μg/ml and 10 μg/ml for 27 h under the same conditions as above. After the completion of the culture, the culture liquid was treated with MTT reagent (5 mg/ml; SIGMA, USA) with 1/10 volume and further cultured for 4 h, and the generated formazan was dissolved in DMSO and the absorbance was measured at 540 nm using a spectrophotometer (Molecular devices, USA) (see FIG. 2c).

NIH3T3 cells = conditions: NIH3T3 fibroblasts; 1 and 10 μg/ml; 27 h; MTT
Description: as §1

ERK1/2 = conditions: IgE-sensitized cells; peptide 10 μg/ml 20 min; HSA 1 μg/ml 5 or 30 min
Description: (§2) The cells were placed in a 60 mm-sized plate for culture (SPL, Korea) at 1.5×10^6 cells per well, and then cultured for 24 h under conditions of 37° C. and 5% CO2. After that, the cells were treated with IgE (1 μg/ml) for 24 h for cell sensitization, and then a blank sample for determining a reference and the synthetic peptide were dissolved in 10% distilled water in a sterile state, followed by treatment with a concentration of 10 μg/ml for 20 min, and then the cells were stimulated by treatment with 1 μg/ml allergen HSA for 5 min or 30 min.

p38 = conditions: IgE-sensitized cells; peptide 10 μg/ml 20 min; HSA 1 μg/ml 5 or 30 min
Description: as §2

FcεRI receptor = target: T1, FcεRI receptor; test: Immunoprecipitation with IgE antibody and western blotting of FcεRI gamma sub-chain (receptor complex formation); type: cell-based; conditions: IgE-sensitized cells; peptide 10 μg/ml; HSA stimulation 10 min
Description: After the first separation using immunoprecipitation, western blotting was conducted using FcεRI gamma sub-chain antibody to confirm the protein amount of the gamma sub-chains binding to IgE (see FIG. 4c).

[2] = Thermal stability at 37° C. in phosphate buffered saline, HPLC quantification; type: physicochemical; conditions: 0.1 mg/ml in PBS, days 0-70 (FIG. 5)
Description: 1 ml of the prepared solution was placed in each glass vial, and allowed to stand at 37° C. The solution standing at 37° C. was sampled on days 0, 5, 10, 20, 30, 50, and 70. Centrifugation for each day was conducted to remove modified peptides or proteins, and the supernatant was taken. HPLC was used for quantification (see FIG. 5).

Bcl2 = conditions: 1 and 10 μg/ml, 27 h
Lyn = conditions: IgE-sensitized cells; peptide treatment 20 min; HSA 1 μg/ml
[3] = activated mast cells (IgE and HSA treatment)

Molecule | secretion amount of histamine (RBL-2H3 cells; positive control 40 μM) | Annexin V-positive cell count (apoptosis) [1, 3] | Annexin V-positive cell count (apoptosis) ([1]; inactivated mast cells) | cytotoxicity (HaCaT cells) | cytotoxicity (NIH3T3 cells) | secretion amount of histamine (RBL-2H3 cells; peptide 1 and 10 μg/ml) | phosphorylation of ERK1/2 (ERK1/2) | phosphorylation of p38 (p38) | complex formation of FcεRI receptor (gamma sub-chains binding to IgE) (FcεRI receptor) | thermal stability [2] | expression level of Bcl2 (Bcl2; [3]) | expression level of Bcl2 (Bcl2; inactivated mast cells) | phosphorylation of Lyn (Lyn)
O=c1c(O)c(-c2ccc(O)c(O)c2)oc2cc(O)cc(O)c12 [quercetin, reference compound] | reduces the secretion amount of histamine |  |  |  |  |  |  |  |  |  |  |  | 
WVPYQARVPYPR [peptide of the present invention] |  | increased the Annexin V-positive cell count | increased the Annexin V-positive cell count | did not exhibit cytotoxicity | did not exhibit cytotoxicity | activity to reduce the secretion amount of histamine in a concentration-dependent manner | efficacy of inhibiting the phosphorylation | efficacy of inhibiting the phosphorylation | significantly inhibit the complex formation | very excellent thermal stability | reduce the expression level of Bcl2 | reduce the expression level of Bcl2 | significantly inhibited in a concentration-dependent manner
natural semaphorin 3A protein: standard form growth factor (Semaphorin 3A) purchased from NIBSC (UK); human semaphorin 3A, SEQ ID NO: 2 (protein, listed as Homo sapiens) MGWLTRIVCLFWGVLLTARANYQNGKNNVPRLKLSYKEMLESNNVITFNGLANSSSYHTFLLDEERSRLYVGAKDHIFSFDLVNIKDFQKIVWPVSYTRRDECKWAGKDILKECANFIKVLKAYNQTHLYACGTGAFHPICTYIEIGHHPEDNIFKLENSHFENGRGKSPYDPKLLTASLLIDGELYSGTAADFMGRDFAIFRTLGHHHPIRTEQHDSRWLNDPKFISAHLISESDNPEDDKVYFFFRENAIDGEHSGKATHARIGQICKNDFGGHRSLVNKWTTFLKARLICSVPGPNGIDTHFDELQDVFLMNFKDPKNPVVYGVFTTSSNIFKGSAVCMYSMSDVRRVFLGPYAHRDGPNYQWVPYQGRVPYPRPGTCPSKTFGGFDSTKDLPDDVITFARSHPAMYNPVFPMNNRPIVIKTDVNYQFTQIVVDRVDAEDGQYDVMFIGTDVGTVLKVVSIPKETWYDLEEVLLEEMTVFREPTAISAMELSTKQQQLYIGSTAGVAQLPLHRCDIYGKACAECCLARDPYCAWDGSACSRYFPTAKRRTRRQDIRNGDPLTHCSDLHHDNHHGHSPEERIIYGVENSSTFLECSPKSQRALVYWQFQRRNEERKEEIRVDDHIIRTDQGLLLRSLQQKDSGNYLCHAVEHGFIQTLLKVTLEVIDTEHLEELLHKDDDGDGSKTKEMSNSMTPSQKVWYRDFMQLINHPNLNTMDEFCEQVWKRDRKQRRQRPGHTPGNSNKWKHLQENKKGRNRRTHEFERAPRSV |  |  |  |  |  |  |  |  |  | low stability at the time of storage for a long period of time |  |  | 
